# From patent publication US20180133194A1, “METHOD OF TREATING INFLAMMATION USING NATURAL COMPOUNDS AND/OR DIET” (UNIVERSITY OF FLORIDA RESEARCH FOUNDATION, INCORPORATED, priority 2015, published 2018)
# What was measured:
# [1] = in vivo; cited from earlier work
# hypoxic-ischemic injury = conditions: neonatal rat, cited from earlier work
# [2] = cited from earlier work
# inflammatory cytokines = test: Cytokine array (RodentMAP) on plasma in paclitaxel-induced model of inflammation; assay type: in vivo, mice; conditions: compared to control; for macrophage-derived chemokine [MDC/CCL22] level: paclitaxel alone
# Description: FIG. 1. Using a drug induced model of inflammation, a cytokine array was used to measure inflammatory cytokines, immune system alteration and the ability of our treatment to attenuate and re-establish normal status. Plasma was isolated from mice treated with the different treatments (control, paclitaxel [PTX, 40 mg/kg], NU.001[CS] and PTX+NU.001[PTX+CS]). * indicates p<0.05 and ** indicates p<0.01, one-way ANOVA or t-test, compared to control. # indicates p<0.05 and ## indicates p<0.01, one-way ANOVA or t-test, compared to PTX.
# FIG. 2. NU.001 reduces inflammatory signals in a drug-induced model of inflammation. Animals received oral delivery of NU.001 for 3-4 weeks or a control diet. The microtubule stabilizing agent paclitaxel [40 mg/kg cumulative] was administered to induce inflammation. A cytokine array was used to measure inflammation and immune system status and assess the ability of NU.001 to attenuate or re-establish normal cytokine levels. Plasma was isolated from mice treated with the different treatments (control, paclitaxel, NU.001, and paclitaxel+NU.001). […] Treatment composition is as follows: [1] Control=55% carbohydrates, 30% proteins, 15% fat, [2]
# FIGS. 4A-4B. NU.001 increases levels of Leukemia inhibitory factor [LIF] and CCL22. A. After being fed for 3-4 weeks with control diet or NU.001 diet, plasma was isolated for cytokine screening. […] LIF has been proposed to prevent or treat peripheral neuropathy. *, p <0.05, t-test.
# The chemotherapeutic agent paclitaxel was used to induce inflammation. Animals were stressed by treating with paclitaxel [40 mg/kg cumulative], resulting in changes in a number of cytokines and related molecules involved in inflammation processes. Animals were treated with NU.001 for 3-4 weeks and blood was taken for plasma isolation. A panel of cytokines was screened using RodentMAP [Myriad/RBM].
# Levels of Leukemia inhibitory factor (LIF) were compared in animals treated with control diet or NU.001 diets. After 4 weeks of treatment, blood was taken and plasma was isolated to measure levels of cytokines. […]
# [3] = oral doses as high as 500 mg/kg, rodents; cited from earlier work
# [4] = 500 mg/kg/day, divided dosage, 13 weeks, pre-fed dogs; cited from earlier work
molecule,measurement,setting,value
"C[S+]([O-])CCCCN=C=S (stereo not drawn) [SFN, sulforaphane]",terminal elimination phase,[1],long
same,time to peak plasma levels,[1],≤ 2 h
same,infarct ratio,hypoxic-ischemic injury; at 24 hours after hypoxic ischemia,reduced
same,expression of Nrf2 antioxidative transcription factor in the brain,hypoxic-ischemic injury; hypoxic-ischemic injury,increased
same,number of apoptotic cells,hypoxic-ischemic injury; hypoxic-ischemic injury,significantly decreased
same,safety of dose,[2]; 100 mg SFN from oral intake of 68 grams of broccoli sprouts,safe non-toxic
same,adverse effects of administration in humans,[2]; SFN or SFN-enriched dietary origin items such as broccoli sprouts,not demonstrated any significant adverse effects
CC(=O)O[C@H]1C(=O)[C@@]2(C)[C@H]([C@H](OC(=O)c3ccccc3)[C@]3(O)C[C@H](OC(=O)[C@H](O)[C@@H](NC(=O)c4ccccc4)c4ccccc4)C(C)=C1C3(C)C)[C@]1(OC(C)=O)CO[C@@H]1C[C@@H]2O [paclitaxel],inflammation related cytokines,inflammatory cytokines; paclitaxel 40 mg/kg cumulative alone,up-regulated
same,macrophage-derived chemokine [MDC/CCL22] level,inflammatory cytokines,Lower levels
same,macrophage-derived chemokine [MDC/CCL22] level,inflammatory cytokines; listed as Paclitaxel,decrease
epigallocatechin-3-gallate [EGCG],genotoxicity and short term toxicity,[3],no genotoxic or short term toxicity
same,adverse events or toxicity,[4],no adverse events or toxicity
